According to patent publication US8586505B2 (SDS Biotech K. K., priority 2009, dated 2013):

Assays:
[1] = test system: Sphaerotheca fuliginea; test: Test of examining control effect on Sphaerotheca fuliginea (potted cucumber plants); type: in vivo; settings: Podosphaera fuliginea, 336 h; 10% wettable powder adjusted to 125 ppm, 15 ml/pot sprayed on potted cucumber plants one day before spray inoculation; assessed after 14 days in greenhouse; read-out: Determination of control effect (preventive value) on Sphaerotheca fuliginea
Method in brief: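 Cucumber plants (Sagamihanjiro, 2nd leaf stage) sprayed with 125 ppm compound (from 10% wettable powder), inoculated one day later with S. fuliginea conidia (1.0×10^5 cells/ml); lesion area scored after 14 days in greenhouse. Preventive value vs untreated; ≥60% high, <60% low control.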

[2] = test system: Phytophthora infestans; test: whole plant or invertebrate; type: in vivo; settings: in Solanum lycopersicum, 96 h, read-out: Determination of control effect (preventive value)
[3] = test system: Tetranychus urticae eggs; test: Test of examining effect on Tetranychus urticae eggs (ovicidal rate); type: in vivo; settings: 144 h, 0.4 ml sprayed, unhatched eggs counted six days later, read-out: Determination (ovicidal rate)
Description: Thereafter, the released female adults were removed. […] Six days later, the number of unhatched eggs was counted, and an ovicidal rate was calculated.

[4] = test system: Pseudoperonospora cubensis; test: Test of examining control effect on Pseudoperonospora cubensis (potted cucumber plants); type: in vivo; settings: 96 h, 10% wettable powder adjusted to 125 ppm, 15 ml/pot sprayed on potted cucumber plants one day before spray inoculation, assessed after 1 day wet chamber and 3 days greenhouse, read-out: Determination of control effect (preventive value) on Pseudoperonospora cubensis
Method in brief: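 Cucumber plants (Sagamihanjiro, 2.5-leaf stage) sprayed with 125 ppm compound solution from 10% wettable powder, 15 ml/pot. One day later, spray-inoculated with P. cubensis conidia (1.0×10^4 cells/ml), kept 1 day at 21° C wet, then 3 days in greenhouse. Preventive value derived from lesion area relative to untreated plants.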

Structure (SMILES) | pest or weed control at 125 µg/mL [1] [%] | pest or weed control at 125 ppm [2] [%] | pest or weed control at 250 ppm [3] [%] | pest or weed control at 125 µg/mL [4] [%] | melting point [°C]
COc1ccc(C#CCCNc2ncnc3sccc23)cc1OC [compound 24] | 60 to 100 | 0 to 60 | 60 to 80 | 60 to 100 | 182 to 184
COC(=O)c1cccc(C#CCCNc2ncnc3sccc23)c1 [compound 30] | 0 to 60 | 0 to 60 | 60 to 80 | 60 to 100 | 163 to 166
Cc1cc(F)ccc1C#CCC(C)Nc1ncnc2sccc12 (centres unmarked) [compound 246] | 60 to 100 | 60 to 100 | 80 to 95 | 60 to 100 | –
CC(CC#Cc1ccc(F)cc1Cl)Nc1ncnc2sccc12 (centres unmarked) [compound 247] | 60 to 100 | 60 to 100 | 60 to 80 | 60 to 100 | –
CC(CC#Cc1cc(F)ccc1C(F)(F)F)Nc1ncnc2sccc12 (centres unmarked) [compound 248] | 60 to 100 | 0 to 60 | 60 to 80 | 60 to 100 | –
CC(CC#Cc1ccc(F)cc1C(F)(F)F)Nc1ncnc2sccc12 (centres unmarked) [compound 249] | 60 to 100 | 60 to 100 | ≥ 95 | 60 to 100 | –
CC(CC#Cc1ccc(S(F)(F)(F)(F)F)cc1Cl)Nc1ncnc2sccc12 (centres unmarked) [compound 253] | 60 to 100 | 0 to 60 | 60 to 80 | 60 to 100 | –
CC(CC#Cc1ccc(C(F)(F)F)cc1Cl)Nc1ncnc2sccc12 (centres unmarked) [compound 257] | 60 to 100 | 60 to 100 | 80 to 95 | 60 to 100 | –
CC(CC#Cc1ccc(Cl)cc1C(F)(F)F)Nc1ncnc2sccc12 (centres unmarked) [compound 258] | 60 to 100 | 60 to 100 | 60 to 80 | 60 to 100 | –
Cc1ccc(C#CCC(C)Nc2ncnc3sccc23)c(C)c1 (centres unmarked) [compound 259] | 60 to 100 | 60 to 100 | ≥ 95 | 60 to 100 | –
CCC(CC#Cc1ccccc1)Nc1ncnc2sccc12 (centres unmarked) [compound 267] | 60 to 100 | 0 to 60 | 60 to 80 | 60 to 100 | –
CCCCC(CC#Cc1ccccc1)Nc1ncnc2sccc12 (centres unmarked) [compound 269] | 60 to 100 | 0 to 60 | 60 to 80 | 60 to 100 | –
CC(CC#Cc1ccc(S(F)(F)(F)(F)F)cc1)Nc1ncnc2ccccc12 (centres unmarked) [compound 277] | 60 to 100 | 0 to 60 | ≥ 95 | 60 to 100 | –
CC(CC#Cc1ccc(S(F)(F)(F)(F)F)cc1Cl)Nc1ncnc2ccccc12 (centres unmarked) [compound 283] | 60 to 100 | 60 to 100 | 60 to 80 | 60 to 100 | –
CC(CC#Cc1ccc(Cl)cc1C(F)(F)F)Nc1ncnc2ccccc12 (centres unmarked) [compound 285] | 60 to 100 | 60 to 100 | ≥ 95 | 60 to 100 | –
CC(CC#Cc1ccc(F)cc1C(F)(F)F)Nc1ncnc2ccccc12 (centres unmarked) [compound 286] | 60 to 100 | 60 to 100 | 80 to 95 | 60 to 100 | –
CC(CC#Cc1ccc(C(F)(F)F)cc1F)Nc1ncnc2ccccc12 (centres unmarked) [compound 288] | 60 to 100 | 0 to 60 | ≥ 95 | 60 to 100 | –
CC(CC#Cc1ccc(C(C)C)cc1C(F)(F)F)Nc1ncnc2ccccc12 (centres unmarked) [compound 289] | 60 to 100 | 0 to 60 | ≥ 95 | 60 to 100 | –
CC(CC#Cc1ccc(Cl)cc1C(F)(F)F)Nc1ncnc2c(F)cccc12 (centres unmarked) [compound 348] | 60 to 100 | 0 to 60 | 80 to 95 | 60 to 100 | –
CC(CC#Cc1ccc(Cl)cc1C(F)(F)F)Nc1ncnc2cccc(Cl)c12 (centres unmarked) [compound 350] | 60 to 100 | 0 to 60 | ≥ 95 | 60 to 100 | –
Fc1cc2ncnc(NCCC#Cc3ccc(Cl)cc3C(F)(F)F)c2cc1F [compound 355] | 60 to 100 | 60 to 100 | ≥ 95 | 60 to 100 | –
Cc1c(Cl)ncnc1NCCC#Cc1ccccc1 [compound 356] | 60 to 100 | 60 to 100 | 80 to 95 | 60 to 100 | –
CC(F)c1ncnc(NCCC#Cc2ccccc2)c1Cl (centres unmarked) [compound 376] | 60 to 100 | 60 to 100 | ≥ 95 | 60 to 100 | –
CC(F)c1ncnc(NCCC#Cc2ccc(Cl)cc2C(F)(F)F)c1Cl (centres unmarked) [compound 377] | 60 to 100 | 0 to 60 | ≥ 95 | 60 to 100 | –
CC(CC#Cc1ccc(Cl)cc1C(F)(F)F)Nc1ncnc(C(C)F)c1Cl (centres unmarked) [compound 382] | 60 to 100 | 0 to 60 | ≥ 95 | 60 to 100 | –
CC(CC#Cc1ccc(Cl)cc1C(F)(F)F)Nc1ncnc2ncccc12 (centres unmarked) [compound 384] | 60 to 100 | 0 to 60 | ≥ 95 | 60 to 100 | –
Cc1ncnc(NC(C)CC#Cc2ccc(Cl)cc2C(F)(F)F)c1Cl (centres unmarked) [compound 385] | 60 to 100 | 0 to 60 | ≥ 95 | 60 to 100 | –
